Measured values taken from patent US10881679B2, “Application of a phillyrin/phillygeninin composition in preparing a medicine or health care product for alleviating or/and treating viral diseases, and medicine or health care product for treating viral diseases” (priority 2014, dated 2021).
Marks after values point to notes of the source that are not given here.

Columns and labels:
[1] = system: rat paw swelling induced by carrageenin; experiment: Rat paw swelling induced by carrageenin; assay type: in vivo, Wistar rats; settings: 100 mg/kg
Procedure: Each group has 10 rats. Rats in each group were all administered by […] through the sublingual vein. Normal volume of the right hind paw of each rat in each group was measured in capillary magnification measurement method. In order to avoid errors, the measurement should be carried out in a fixed position and operated by the same person before and after administration. A mean of the two measurement values was taken as the normal volume of the right hind paw of a rat before administration. […] The difference between the groups was compared by inter-group t test processing through the difference percentage (swelling ratio) of the paw volume before and after the induced rat inflammation. [formula] Results

[2] = system: rabbit fever induced by typhoid and paratyphoid vaccine; experiment: Rabbit fever induced by typhoid and paratyphoid vaccine; assay type: in vivo, Japanese big-ear white rabbits; settings: 50 mg/kg i.g.
Procedure: Male Japanese big-ear white rabbits with a weight 1.5˜2.0 kg were used. Before the test, WSC-411P portable digital thermometer was used to measure the normal rectal temperature twice (with certain interval for each time), and the average value was taken as the normal body temperature of rabbits. […] Each group has 6 rabbits, and the test was repeated 3 times for each group. Rabbits were fixed into a fixator. The blank control group was intravenously injected with normal saline of 1 ml/kg via the ear margin; The model control group and each drug group were intravenously injected with typhoid and paratyphoid vaccines of 0.8 ml/kg via the ear margin. After the body temperatures of the rabbits increased by 1° C. or more (requiring about 1˜1.5 h, and this test was limited to 1 h), the blank control group and the model group were administered intragastrically with 0.5% carboxymethycellulose of 1 ml/kg, and the drug groups were administered intragastrically with phillyrin/phillygeninin compositions and paracetamol respectively. The rectal temperature was measured after administration for 30, 60, 90, 120, 180 and 240 min to observe the changes in the body temperature, and difference between the groups was compared by inter-group t test processing through antipyretic percentage.

[3] = system: rat fever induced by beer yeast; experiment: Rat fever induced by beer yeast (Saccharomyces cerevisiae); assay type: in vivo, Wistar rats; settings: 100 mg/kg i.g.
Procedure: Male Wistar rats with a weight of 180˜200 g were used. Normal anal temperature of each rat was measured twice (at a certain interval) with a WSC-411P portable digital thermometer, and a mean of the two measurement values was taken as a normal body temperature of the rat. Then, 300 rats with body temperature at 36.5˜38° C. were selected and randomly divided into 30 groups by weight: model groups (0.5% methyl cellulose), phillyrin/phillygeninin compositions A and B that are divided into low, medium and high dose groups (2.5, 5, 10 mg/kg) respectively, phillyrin groups (13 mg/kg), phillygeninin groups (13 mg/kg), and positive drug paracetamol groups (100 mg/kg). Each group has 10 rates, and the test is repeated 3 times for each group. 10 mL/kg of 10% fresh Saccharomyces cerevisiae suspension was subcutaneously injected to the back of the rats of each group to induce fever. After administration of 10% fresh Saccharomyces cerevisiae suspension for 6.0 h, the phillyrin/phillygeninin composition and the paracetamol positive drug were administered by intragastric administration, and the same volume of 0.5% methyl cellulose is administrated to the model group by intragastric administration. Rectal temperatures were respectively measured at 1, 2, 3 and 4 h after the administration. Changes in the body temperature were observed and difference between the groups was compared by inter-group t test processing through antipyretic percentage. The above test was repeated totally 3 times.

[4] = system: sweat gland epithelial cells of rat paws; experiment: Sweat secretion of rat paws (histomorphological observation method); assay type: in vivo, Wistar rats; settings: 35.0 mg/kg s.c., 30 min after administration
Source text: This test is based on a mechanism that when a rat is in an excited state, in addition to the increase of sweat secretion of sweat glands, the morphology of sweat gland epithelial cells changes accordingly. Under an optical microscope, it can be seen that the sweat gland epithelial cell vacuoles increase in number and expand. Under an electron microscope, such expanded vacuoles appear to be mitochondria in the sweat gland epithelial cell swelling, breakage and fusion and expansion of secretory vesicle. Therefore, through histomorphological observation of sweat gland epithelial tissue of a rat paw, secretory activities of the sweat gland can be known.
300 Wistar rats with equal male and female number, weighing 120˜160 g were used. These rats were randomly divided into 30 groups by weight and gender: control groups (0.5% of methyl cellulose), phillygeninin groups, phillyrin groups, low, medium and high dose groups (2.5, 5, 10 mg/kg) of phillyrin/phillygeninin compositions A and B separately, and positive drug pilocarpine groups (35 mg/kg). Each group has 10 rats, the test is repeated 3 times for each group. Pilocarpine solution was administered by subcutaneous injection, the remaining groups were subjected to intragastric administration. After administration of the 0.5% of methyl cellulose in the control group for one hour, after administration of the pilocarpine in the positive drug group for 30 min, and after administration of the phillyrin, the phillygeninin and the phillyrin/phillygeninin composition for one hour, the right hind limb was instantly cut off at the ankle joint to immediately take down the footpad of the right hind limb and placed into 10% of formaldehyde solution. The footpads were fixed, dehydrated, embedded, sliced and stained with HE by using conventional methods. Changes in sweat gland epithelial cells of the rat paws from each group were observed under an optical microscope, to mainly observe the percentage of vacuolization. The differences among the various groups was performed through X^2 test for statistical analysis. The above test was repeated 3 times. Percentage of vacuolization=(the number of vacuolized sweat glands)/(the number of sweat glands observed)×100%.

[5] = system: sweat secretion of rat paws; experiment: Sweat secretion of rat paws (coloring method); assay type: in vivo, Wistar rats; settings: 35.0 mg/kg s.c.
Source text: The test is based on a mechanism that distribution of sweat glands is present in footpads of rat paws, the amount of sweat secretion and variation thereof can be observed by using a mechanism that a purple color can be produced by contacting iodine and starch when encountered with sweat.
500 Wistar rats with equal male and female number were used, weighing of 120˜150 g. These rats were randomly divided into 50 groups by weight and gender, i.e., namely 5 groups for the control groups (0.5% methyl cellulose), 5 groups for phillyrin groups, 5 groups for phillygeninin groups, 5 groups for the low, medium and high dose groups (2.5, 5, 10 mg/kg, respectively) of phillyrin/phillygeninin compositions A and B respactively, and 5 groups for the positive drug pilocarpine groups (35 mg/kg). Each group has 10 rats, 10 groups of rates are used for each test, which has 5 time periods (1, 5, 10, 15 and 20 min). The rats were placed into a self-made rat fixation bag, and both hind limbs of the rats were exposed. Dirt on the right paws was gently cleaned away using cotton swabs containing anhydrous alcohol. Pilocarpine solution was administered by subcutaneous injection, the remaining groups were subjected to intragastric administration. At 1 h (30 min for the pilocarpine group) after administration, pre-existing sweat and sweat generated due to struggle on the right paw of each rat in each group was gently wiped away with dry cotton swabs, then the paws were coated with solution A (dissolving 2 g iodine in 100 ml anhydrous alcohol) of Hetian-gaoyuanshi's reagent. After complete dryness, the paws were thinly coated with solution B (uniform mixture of 50 g soluble starch and 100 ml castor oil) of Hetian-gaoyuanshi's reagent. The color and number of dark purple coloring spots (i.e. sweat spots) were carefully observed at 1, 5, 10, 15 and 20 min after the coating of the solution B respectively with magnifying glass. After the test was completed, statistical treatment was performed according to the rank sum test with two-sample comparison, thereby comparing the differences among the various groups.

[6] = system: Herpes zoster simplex viruses type I (HSV-I); experiment: Impact on virus-induced cytopathic effect in Vero cells (MTT): HSV-I; assay type: cell-based; settings: HSV-I 100TCID50, Vero, 72 h; drug g/L as Table 1-2
[7] = system: Coxsackie virus B3 (CVB3); experiment: Impact on virus-induced cytopathic effect in Vero cells (MTT): CVB3; assay type: cell-based; settings: CVB3 100TCID50, Vero, 72 h; drug g/L as Table 1-2
enterovirus EV71 = experiment: Impact on virus-induced cytopathic effect in Vero cells (MTT): EV71; assay type: cell-based; settings: EV71 100TCID50, Vero, 72 h; drug g/L as Table 1-2
parainfluenza virus [8] = experiment: Impact on virus-induced cytopathic effect in Vero cells (MTT): parainfluenza virus; assay type: cell-based; settings: parainfluenza virus 100TCID50, Vero, 72 h; drug g/L as Table 1-2
[9] = system: Coxsackievirus A16 (CoxA16); experiment: Impact on virus-induced cytopathic effect in Vero cells (MTT): CoxA16; assay type: cell-based; settings: CoxA16 100TCID50, Vero, 72 h; drug g/L as Table 1-2
influenza virus [10] = experiment: Impact on virus-induced cytopathic effect in Vero cells (MTT): influenza virus; assay type: cell-based; settings: influenza virus 100TCID50, Vero, 72 h; drug g/L (Table 1-2): phillyrin 0.01, Phillygeninin 0.02, compositions A, B 0.01, Ribavirin 0.70, oseltamivir phosphate 0.30
adenovirus (ADV) = experiment: Impact on virus-induced cytopathic effect in Vero cells (MTT): ADV; assay type: cell-based; settings: ADV 100TCID50, Vero, 72 h; drug g/L as Table 1-2
parainfluenza virus [11] = assay type: in vivo, Kunming mice; settings: 58.5 mg/kg/d i.g. 5 days
influenza virus [12] = assay type: in vivo, Kunming mice; settings: 58.5 mg/kg/d i.g. 5 days
[13] = system: respiratory syncytial virus (RSV); experiment: Impact on virus-induced cytopathic effect in Vero cells (MTT): RSV; assay type: cell-based; settings: RSV 100TCID50, Vero, 72 h; drug g/L as Table 1-2
[14] = 10 min after coating solution B
[15] = 15 min after coating solution B
[16] = 20 min after coating solution B

Compound: CC(=O)Oc1ccccc1C(=O)O [Aspirin]
- Swelling percentage (%) ([1]; 15 min after inflammation induction): 8.90 ± 6.70 %
- Swelling percentage (%) ([1]; 30 min after inflammation induction): 15.6 ± 12.2 %
- Swelling percentage (%) ([1]; 60 min after inflammation induction): 20.3 ± 10.9 %
- Swelling percentage (%) ([1]; 120 min after inflammation induction): 21.6 ± 12.1 %
- Swelling percentage (%) ([1]; 180 min after inflammation induction): 26.1 ± 21.1 %
- Swelling percentage (%) ([1]; 240 min after inflammation induction): 26.1 ± 16.3 %
- Swelling percentage (%) ([1]; 300 min after inflammation induction): 34.9 ± 14.6 %
- Swelling percentage (%) ([1]; 360 min after inflammation induction): 31.9 ± 12.2 %

Compound: CC(=O)Nc1ccc(O)cc1 [Paracetamol]
- Body temperature ([2]; 30 min after administration): 40.53 ± 0.65 °C
- antipyretic percentage (%) ([2]; 30 min after administration): −1.14 ± 0.56%
- Body temperature ([2]; 60 min after administration): 40.10 ± 0.49 °C
- antipyretic percentage (%) ([2]; 60 min after administration): −2.18 ± 0.17%
- Body temperature ([2]; 90 min after administration): 39.83 ± 0.58 °C
- antipyretic percentage (%) ([2]; 90 min after administration): −2.83 ± 0.15%
- Body temperature ([2]; 120 min after administration): 39.72 ± 0.56 °C
- antipyretic percentage (%) ([2]; 120 min after administration): −3.11 ± 0.20%
- Body temperature ([2]; 180 min after administration): 39.61 ± 0.41 °C
- antipyretic percentage (%) ([2]; 180 min after administration): −3.38 ± 0.22%
- Body temperature ([2]; 240 min after administration): 39.53 ± 0.47 °C
- antipyretic percentage (%) ([2]; 240 min after administration): −3.58 ± 0.38%
- Body temperature ([3]; 1 h after administration): 38.66 ± 0.59 °C
- antipyretic percentage (%) ([3]; 1 h after administration): −2.07 ± 0.54 %
- Body temperature ([3]; 2 h after administration): 38.19 ± 0.59 °C
- antipyretic percentage (%) ([3]; 2 h after administration): −3.27 ± 0.77 %
- Body temperature ([3]; 3 h after administration): 37.98 ± 0.19 °C
- antipyretic percentage (%) ([3]; 3 h after administration): −3.80 ± 1.43 %
- Body temperature ([3]; 4 h after administration): 37.84 ± 0.32 °C
- antipyretic percentage (%) ([3]; 4 h after administration): −4.15 ± 1.59 %

Compound: CC[C@@H]1C(=O)OC[C@@H]1Cc1cncn1C [Pilocarpine]
- Number of sweat glands of vacuole [4]: 57
- percentage of vacuolization (%) [4]: 27.40*** %
- Animal number of sweat spots of level + ([5]; 1 min after coating solution B): 1 rats
- Animal number of sweat spots of level ++ ([5]; 1 min after coating solution B): 3 rats
- Animal number of sweat spots of level +++ ([5]; 1 min after coating solution B): 1 rats
- Animal number of sweat spots of level ++++ ([5]; 1 min after coating solution B): 5 rats
- Animal number of sweat spots of level − ([5]; 1 min after coating solution B): 0 rats
- Animal number of sweat spots of level + ([5]; 5 min after coating solution B): 1 rats
- Animal number of sweat spots of level ++ ([5]; 5 min after coating solution B): 2 rats
- Animal number of sweat spots of level +++ ([5]; 5 min after coating solution B): 1 rats
- Animal number of sweat spots of level ++++ ([5]; 5 min after coating solution B): 6 rats
- Animal number of sweat spots of level − ([5]; 5 min after coating solution B): 0 rats
- Animal number of sweat spots of level + [5, 14]: 0 rats
- Animal number of sweat spots of level ++ [5, 14]: 2 rats
- Animal number of sweat spots of level +++ [5, 14]: 1 rats
- Animal number of sweat spots of level ++++ [5, 14]: 6 rats
- Animal number of sweat spots of level − [5, 14]: 0 rats
- Animal number of sweat spots of level + [5, 15]: 0 rats
- Animal number of sweat spots of level ++ [5, 15]: 2 rats
- Animal number of sweat spots of level +++ [5, 15]: 1 rats
- Animal number of sweat spots of level ++++ [5, 15]: 6 rats
- Animal number of sweat spots of level − [5, 15]: 0 rats
- Animal number of sweat spots of level + [5, 16]: 0 rats
- Animal number of sweat spots of level ++ [5, 16]: 2 rats
- Animal number of sweat spots of level +++ [5, 16]: 1 rats
- Animal number of sweat spots of level ++++ [5, 16]: 6 rats
- Animal number of sweat spots of level − [5, 16]: 0 rats

Compound: NC(=O)c1ncn([C@@H]2O[C@H](CO)[C@@H](O)[C@H]2O)n1 [Ribavirin]
- antiviral effective rate (ER %) [6]: 62.92** %
- antiviral effective rate (ER %) [7]: 13.44%
- antiviral effective rate (ER %) (enterovirus EV71): 4.25%
- antiviral effective rate (ER %) (parainfluenza virus [8]): 91.56** %
- antiviral effective rate (ER %) [9]: 0.70%
- antiviral effective rate (ER %) (influenza virus [10]): 57.49** %
- antiviral effective rate (ER %) (adenovirus (ADV)): 0.43%
- Hemagglutination titer (InX) (parainfluenza virus [11]): 23.22
- Inhibition rate (%) of hemagglutination titer (parainfluenza virus [11]): 29.86%
- Hemagglutination titer (InX) (influenza virus [12]): 21.91 ± 1.050
- Inhibition rate (%) of hemagglutination titer (influenza virus [12]): 32.39%
- antiviral effective rate (ER %) [13]: 50.08* %
